# Reference: PMC8698932 (2021)
# How the values were obtained:
# [1] = test system: nmyc01 (DNA, i motif) ACCCCCTGCATCTGCATGCCCCCTCCCACCCCCT; test: CD melting, 287 nm; settings: Na+ (0.2 M CH3COONa); acetate pH 5; 2 µM DNA, 8 µM compound
# [2] = test system: ckit21T12T21 (DNA, G4) CGGGCGGGCGCTAGGGAGGGT; test: 1H NMR titration (imino and aromatic protons); settings: 20 mM KCl; 5 mM KH2PO4 pH 6.9, 25 °C; stacks over external tetrads
# [3] = test system: GG1 (DNA, G4) GGGCGGGCGCGAGGGAGGGT; test: CD melting, 261 nm; settings: 5 mM KCl; 10 mM KH2PO4 pH 7; 2 µM DNA, 8 µM compound
# [4] = test system: 22nt (DNA, i motif) CCCTAACCCTAACCCTAACCCT; test: CD melting, 287 nm; settings: Na+ (0.2 M CH3COONa); acetate pH 5; 2 µM DNA, 8 µM compound
# [5] = test system: nmyc01m (DNA, i motif) ACCCCCTGCATCTTTTTGCCCCCTCCCACCCCCT; test: 1H NMR titration (imino protons); settings: Na+ (sodium phosphate); pH 5.0, 25 °C; no change in imino resonances
# [6] = test system: DL40 (DNA, G4) GGTTTTGGCAGGGTTTTGGT; test: 1H NMR titration (imino and aromatic protons); settings: 150 mM NaCl; sodium phosphate pH 6.8, 25 °C; new imino signals, single conformation at R ≥ 1.0
# [7] = test system: nmyc01 (DNA, i motif) ACCCCCTGCATCTGCATGCCCCCTCCCACCCCCT; test: fluorescence titration (alkaloid quenching); settings: 5 mM KCl; acetate 10 mM pH 5; overall constant of the 1:4 DNA:ligand model, not per site; non-specific binding possible
# [8] = test system: nmyc01 (DNA, i motif) ACCCCCTGCATCTGCATGCCCCCTCCCACCCCCT; test: 1H NMR titration (imino protons); settings: Na+ (sodium phosphate); pH 5.0, 25 °C; hairpin Watson-Crick signals disappear at R = 0.25
# [9] = test system: DL40 (DNA, G4) GGTTTTGGCAGGGTTTTGGT; test: CD melting, 291 nm; settings: 5 mM KCl; 10 mM KH2PO4 pH 7; 2 µM DNA, 8 µM compound
# [10] = test system: GG1 (DNA, G4) GGGCGGGCGCGAGGGAGGGT; test: fluorescence titration (alkaloid quenching); settings: 5 mM KCl; phosphate 10 mM pH 7; overall constant of the 1:5 DNA:ligand model, not per site; non-specific binding possible
# [11] = test system: DL40 (DNA, G4) GGTTTTGGCAGGGTTTTGGT; test: fluorescence titration (alkaloid quenching); settings: 5 mM KCl; phosphate 10 mM pH 7; overall constant of the 1:4 DNA:ligand model, not per site; non-specific binding possible
# [12] = test system: 22nt (DNA, i motif) CCCTAACCCTAACCCTAACCCT; test: 1H NMR titration (imino protons); settings: Na+ (sodium phosphate); pH 5.0, 25 °C; only small insignificant imino changes
# [13] = test system: 22nt (DNA, i motif) CCCTAACCCTAACCCTAACCCT; test: fluorescence titration (alkaloid quenching); settings: 5 mM KCl; acetate 10 mM pH 5; overall constant of the 1:4 DNA:ligand model, not per site; non-specific binding possible
# [14] = test system: nmyc01m (DNA, i motif) ACCCCCTGCATCTTTTTGCCCCCTCCCACCCCCT; test: CD melting, 287 nm; settings: Na+ (0.2 M CH3COONa); acetate pH 5; 2 µM DNA, 8 µM compound
# [15] = test system: nmyc01m (DNA, i motif) ACCCCCTGCATCTTTTTGCCCCCTCCCACCCCCT; test: fluorescence titration (alkaloid quenching); settings: 5 mM KCl; acetate 10 mM pH 5; overall constant of the 1:5 DNA:ligand model, not per site; non-specific binding possible
structure (smiles),measurement,setting,value
COc1ccc2c(c1O)C[N+]1(C)CCc3cc4c(cc3C1C2)OCO4 (stereo not drawn),ΔTm,[1],−0.3 °C
same,binding,[2],yes
same,ΔTm,[3],1.7 °C
same,ΔTm,[4],0.7 °C
same,binding,[5],no
same,binding,[6],yes
same,Log Ka,[7],18.21 ± 0.17
same,binding,[8],weak
same,ΔTm,[9],5.2 °C
same,Log Ka,[10],22.39 ± 0.03
same,Log Ka,[11],18.46 ± 0.05
same,binding,[12],no
same,Log Ka,[13],17.64 ± 0.12
same,ΔTm,[14],−0.6 °C
same,Log Ka,[15],22.61 ± 0.08
